Target: T1, PD brain-derived a-syn aggregates (Homo sapiens, UniProt P37840)
T1 construct: from tissue; host or cells: human PD donor brain, sarkosyl-insoluble 100,000 x g pellet
Assay: Micro-radiobinding competition assay against Example-1 [^3H-1] (Table 8)
Format: binding
Details: human PD brain-derived a-syn aggregates; for Competition at 100 nM (%): 100 nM non-radiolabelled example compound vs Example-1 [^3H-1] ligand; for Competition at 1 μM (%): 1 μM non-radiolabelled example compound vs Example-1 [^3H-1] ligand
Method: PD brain-derived a-syn aggregates were spotted onto microarray slides. The slides were incubated with the Example-1 [^3H-1] at 6 nM or 20 nM and the example compounds (non-radiolabelled) at 1 μM and 100 nM. In some cases, the non-radiolabelled example compounds were further assessed for a range of different concentrations, varying from 0.05 nM to 2 μM. After incubation, slides were washed and scanned by a real-time autoradiography system (BeaQuant, ai4R). Quantification of the signal was performed by using the Beamage image analysis software (ai4R). […] All measurements were performed with at least two technical replicates. For compounds tested in more than one experiment, the mean of the replicates or K; values in independent experiments is reported.
Results: Example compounds were assessed for their potency to compete with the binding of Example-1 [^3H-1] ligand to PD patient brain-derived a-syn aggregates. Results of the micro-radiobinding competition assay for the example compounds tested are shown in Table 8 as: % competition at 1 μM and 100 nM.

Structure (SMILES) | Competition at 100 nM (%) | Competition at 1 μM (%)
O=C1c2cn(-c3ccc(N4CCCC4)nc3)nc2CN1c1ccc(F)cn1 [Example 115] | 92 | 98
CC(C)n1cc(N2Cc3nn(-c4ccc(N5CC[C@@H](F)C5)nc4)cc3C2=O)cn1 [Example 117] | 17 | 67
CC(C)n1cc(N2Cc3nn(-c4ccc(N5CC[C@H](F)C5)nc4)cc3C2=O)cn1 [Example 119] | 12 | 51
Cc1cnccc1N1Cc2nn(-c3ccc(N4CC[C@@H](F)C4)nc3)cc2C1=O [Example 122] | 34 | 61
Cc1cnccc1N1Cc2nn(-c3ccc(N4CC[C@H](F)C4)nc3)cc2C1=O [Example 123] | 32 | 58
O=C1c2cn(-c3ccc(N4CC[C@@H](F)C4)nc3)nc2CN1c1ccns1 [Example 125] | 80 | 99
O=C1c2cn(-c3ccc(N4CC[C@@H](F)C4)nc3)nc2CN1c1cncs1 [Example 126] | 75 | 83
O=C1c2cn(-c3ccc(N4CC[C@H](F)C4)nc3)nc2CN1c1ccns1 [Example 127] | 71 | 86
O=C1c2cn(-c3ccc(N4CC[C@H](F)C4)nc3)nc2CN1c1cncs1 [Example 128] | 55 | 85
O=C1c2cn(-c3ccc(N4CCCC4)nc3)nc2CN1c1cnn(CCF)c1 [Example 129] | 25 | 74
COc1ccc(-n2cc3c(n2)CN(c2cccnc2)C3=O)cn1 [Example 130] | 74 | 85
O=C1c2cn(-c3ccc(N4CC[C@@H](F)C4)nc3)nc2CN1c1cnsc1 [Example 131] | 72 | 98
O=C1c2cn(-c3ccc(N4CC[C@H](F)C4)nc3)nc2CN1c1cnsc1 [Example 132] | 63 | 93
O=C1c2cn(-c3ccc(N4CC[C@@H](F)C4)nc3)nc2CN1c1nccs1 [Example 134] | 74 | –
CN(C)c1ccc(-n2cc3c(n2)CN(c2cccnc2)C3=O)cn1 [Example 135] | 67 | 96
O=C1c2cn(-c3ccc(N4CC[C@H](F)C4)nc3)nc2CN1c1nccs1 [Example 136] | 75 | –
O=C1c2cn(-c3ccc(N4CC[C@@H](F)C4)nc3)nc2CN1c1ncco1 [Example 137] | 35 | 84
O=C1c2cn(-c3ccc(F)cn3)nc2CN1c1cccnc1 [Example 138] | 32 | 57

Structure (SMILES) | Competition at 100 nM (%) | Competition at 1 μM (%)
Cc1c2c(nn1-c1ccc(N3CCCC3)nc1)CN(c1cccc(F)n1)C2=O [Example 144] | 49 | 68
O=C1c2cn(-c3ccc(N4CC[C@@H](F)C4)nc3)nc2CN1c1cccnn1 [Example 152] | 39 | 86
O=C1c2cn(-c3ccc(C4CCCC4)nc3)nc2CN1c1cccc(F)n1 [Example 154] | 81 | 99
O=C1c2cn(-c3ccc(N4CC[C@@H](F)C4)nc3)nc2CN1c1ccc(O)cn1 [Example 162] | 92 | 110
O=C1c2cn(-c3ccc(N4CC[C@@H](F)C4)nc3)nc2CN1c1cccc(O)n1 [Example 164] | 44 | 87
O=C1c2cn(-c3ccc(N4CC[C@H](F)C4)nc3)nc2CN1c1ccc(O)cn1 [Example 165] | 88 | 107
O=C1c2cn(-c3ccc(N4CC[C@H](F)C4)nc3)nc2CN1c1cccnc1O [Example 168] | 30 | 36
O=C1c2cn(-c3ccc(N4CC[C@H](F)C4)nc3)nc2CN1c1cc(O)ccn1 [Example 170] | 65 | 102
O=C1c2cn(-c3ccc(N4CC[C@@H](F)C4)nc3)nc2CN1c1ccnc(O)c1 [Example 171] | 48 | –
O=C1c2cn(-c3ccc(N4CC[C@H](F)C4)nc3)nc2CN1c1ccnc(O)c1 [Example 172] | 44 | 85
O=C1c2cn(-c3ccc(N4CC[C@H](F)C4)nc3)nc2CN1c1ccncc1O [Example 173] | 12 | 54
O=C1c2cn(-c3ccc(N4CC[C@@H](F)C4)nc3)nc2CN1c1ccncc1O [Example 174] | 46 | 64
O=C1c2cn(-c3ccc(N4CC[C@@H](F)C4)nc3)nc2CN1c1ccccc1O [Example 175] | 32 | 65
O=C1c2cn(-c3ccc(N4CC[C@H](F)C4)nc3)nc2CN1c1ccccc1O [Example 176] | 13 | 54
O=C1c2cn(-c3ccc(N4CC[C@@H](F)C4)nc3)nc2CN1c1cccc(O)c1 [Example 177] | 76 | 100
O=C1c2cn(-c3ccc(N4CC[C@H](F)C4)nc3)nc2CN1c1cccc(O)c1 [Example 178] | 77 | 103
O=C1c2cn(-c3ccc(N4CC[C@H](F)C4)nc3)nc2CN1c1ccc(O)cc1 [Example 179] | 80 | 95
O=C1c2cn(-c3ccc(N4CC[C@@H](F)C4)nc3)nc2CN1c1ccc(O)cc1 [Example 180] | 77 | 96

Now from value to compound:

Competition at 100 nM (%) | Competition at 1 μM (%) | Structure (SMILES)
71 | 97 | Cn1ccc(N2Cc3nn(-c4ccc(N5CC[C@@H](F)C5)nc4)cc3C2=O)n1 [Example 116]
61 | 94 | Cn1ccc(N2Cc3nn(-c4ccc(N5CC[C@H](F)C5)nc4)cc3C2=O)n1 [Example 118]
45 | 83 | Cn1cc(N2Cc3nn(-c4ccc(N5CCC[C@@H](F)C5)nc4)cc3C2=O)cn1 [Example 120]
40 | 84 | Cn1cc(N2Cc3nn(-c4ccc(N5CCC[C@H](F)C5)nc4)cc3C2=O)cn1 [Example 121]
61 | 98 | Cn1cc(N2Cc3nn(-c4ccc(N5CC(F)C5)nc4)cc3C2=O)cn1 [Example 124]
59 | – | Cn1cnc(N2Cc3nn(-c4ccc(N5CC[C@@H](F)C5)nc4)cc3C2=O)c1 [Example 133]
67 | – | O=C1c2cn(-c3ccc(N4CCCC4)nc3)nc2CN1c1cccc(F)n1 [Example 140]
51 | 66 | O=C1c2cn(-c3ccc(N4CCOCC4)nc3)nc2CN1c1cncc(F)n1 [Example 141]
46 | 76 | Cn1ccc(-n2cc3c(n2)CN(c2cccc(F)n2)C3=O)n1 [Example 145]
32 | 53 | Cc1c2c(nn1-c1ccc(N3CCCC3)nc1)CN(c1cncc(F)n1)C2=O [Example 146]
72 | 86 | COc1ccc(-n2cc3c(n2)CN(c2cncc(F)n2)C3=O)cn1 [Example 147]
– | 53 | Cn1cc(-n2cc3c(n2)CN(c2cncc(F)n2)C3=O)cn1 [Example 149]
37 | 46 | Cn1cc(-n2cc3c(n2)CN(c2cccc(F)n2)C3=O)cn1 [Example 150]
31 | 57 | CC(C)c1ccc(-n2cc3c(n2)CN(c2cncc(F)n2)C3=O)cn1 [Example 153]
51 | 94 | N#Cc1ccc(-n2cc3c(n2)CN(c2cncc(F)n2)C3=O)cn1 [Example 155]
80 | 85 | N#Cc1ccc(-n2cc3c(n2)CN(c2cccc(F)n2)C3=O)cn1 [Example 156]
21 | 43 | CC(C)c1ccc(-n2cc3c(n2)CN(c2cccc(F)n2)C3=O)cn1 [Example 157]
19 | 54 | CC(C)Oc1ccc(-n2cc3c(n2)CN(c2cncc(F)n2)C3=O)cn1 [Example 158]
46 | 67 | COc1ccc(-n2cc3c(n2)CN(c2cccc(F)n2)C3=O)cn1 [Example 159]
51 | 73 | CC(C)Oc1ccc(-n2cc3c(n2)CN(c2cccc(F)n2)C3=O)cn1 [Example 160]
42 | 65 | O=C1c2cn(-c3ccc(C4CCCC4)nc3)nc2CN1c1cncc(F)n1 [Example 161]

— patent publication US12552800B2, “Compounds for diagnosis” (AC IMMUNE SA, priority 2020, dated 2026)
